Data published in patent US4535161A, “Benzoquinolizine derivatives” (Daiichi Seiyaku Co., Ltd., priority 1982, dated 1985).
Values after ≈ are worked out from the molar mass of the structure shown. Where a name gives a salt, the structure may show the parent alone. Read-outs that look alike come from different tables or passages of the source.

Legend:
Ent. cloacae, 03400 = assay: Antibacterial activity (MIC), Table 1: Ent. cloacae, 03400; assay type: cell-based
Experimental: (§1) *Determined by the standard method of the Japan Society of Chemoterapy:
(§2) (MuellerHinton Broth medium), 10^6 /ml of bacteria were seeded and
(§3) incubated at 37° C. for 18 hours.

Sh. flexneri, 2a, 5503 = assay: Antibacterial activity (MIC), Table 1: Sh. flexneri, 2a, 5503; assay type: cell-based; settings: Shigella flexneri, Mueller-Hinton Broth, 10^6/ml, 37° C., 18 hours
Experimental: as §1, §2, §3

Pr. vulgaris, 08602 = assay: Antibacterial activity (MIC), Table 1: Pr. vulgaris, 08602; assay type: cell-based; settings: Proteus vulgaris, Mueller-Hinton Broth, 10^6/ml, 37° C., 18 hours
Experimental: as §1, §2, §3

Str. pyogenes, G-36 = assay: Antibacterial activity (MIC), Table 1: Str. pyogenes, G-36; assay type: cell-based; settings: Streptococcus pyogenes, G36, Mueller-Hinton Broth, 10^6/ml, 37° C., 18 hours
Experimental: as §1, §2, §3

E. coli, NIHJ = assay: Antibacterial activity (MIC), Table 1: E. coli, NIHJ; assay type: cell-based; settings: Escherichia coli, Mueller-Hinton Broth, 10^6/ml, 37° C., 18 hours
Experimental: as §1, §2, §3

Ps. aeruginosa, 32121 = assay: Antibacterial activity (MIC), Table 1: Ps. aeruginosa, 32121; assay type: cell-based; settings: Pseudomonas aeruginosa, Mueller-Hinton Broth, 10^6/ml, 37° C., 18 hours
Experimental: as §1, §2, §3

[1] = system: Str. faecalis, ATCC-19433; assay: Antibacterial activity (MIC), Table 1: Str. faecalis, ATCC-19433; assay type: cell-based; settings: Enterococcus faecalis, ATCC19433, Mueller-Hinton Broth, 10^6/ml, 37° C., 18 hours
Experimental: as §1, §2, §3

Pr. mirabilis, IFO-3849 = assay: Antibacterial activity (MIC), Table 1: Pr. mirabilis, IFO-3849; assay type: cell-based; settings: Proteus mirabilis, IFO3849, Mueller-Hinton Broth, 10^6/ml, 37° C., 18 hours
Experimental: as §1, §2, §3

Ps. aeruginosa, 32234 = assay: Antibacterial activity (MIC), Table 1: Ps. aeruginosa, 32234; assay type: cell-based; settings: Pseudomonas aeruginosa, Mueller-Hinton Broth, 10^6/ml, 37° C., 18 hours
Experimental: as §1, §2, §3

S. epidermidis, 56500 = assay: Antibacterial activity (MIC), Table 1: S. epidermidis, 56500; assay type: cell-based; settings: Staphylococcus epidermidis, Mueller-Hinton Broth, 10^6/ml, 37° C., 18 hours
Experimental: as §1, §2, §3

K. pneumoniae, type 1 = assay: Antibacterial activity (MIC), Table 1: K. pneumoniae, type 1; assay type: cell-based; settings: Klebsiella pneumoniae, TYPE1, Mueller-Hinton Broth, 10^6/ml, 37° C., 18 hours
Experimental: as §1, §2, §3

S. aureus, 209 P = assay: Antibacterial activity (MIC), Table 1: S. aureus, 209 P; assay type: cell-based; settings: Staphylococcus aureus, Mueller-Hinton Broth, 10^6/ml, 37° C., 18 hours
Experimental: as §1, §2, §3

Ps. aeruginosa, 32122 = assay: Antibacterial activity (MIC), Table 1: Ps. aeruginosa, 32122; assay type: cell-based; settings: Pseudomonas aeruginosa, Mueller-Hinton Broth, 10^6/ml, 37° C., 18 hours
Experimental: as §1, §2, §3

Ps. aeruginosa, 32104 = assay: Antibacterial activity (MIC), Table 1: Ps. aeruginosa, 32104; assay type: cell-based; settings: Pseudomonas aeruginosa, Mueller-Hinton Broth, 10^6/ml, 37° C., 18 hours
Experimental: as §1, §2, §3

B. subtilis, ATCC-6633 = assay: Antibacterial activity (MIC), Table 1: B. subtilis, ATCC-6633; assay type: cell-based; settings: Bacillus subtilis, ATCC6633, Mueller-Hinton Broth, 10^6/ml, 37° C., 18 hours
Experimental: as §1, §2, §3

Ps. aeruginosa, 32233 = assay: Antibacterial activity (MIC), Table 1: Ps. aeruginosa, 32233; assay type: cell-based; settings: Pseudomonas aeruginosa, Mueller-Hinton Broth, 10^6/ml, 37° C., 18 hours
Experimental: as §1, §2, §3

Gram-positive bacteria = assay: Antibacterial activity against Gram-positive bacteria (summary of Table 1); assay type: cell-based; settings: in words
Experimental: as §1, §2, §3

Ser. marcescens, 10104 = assay: Antibacterial activity (MIC), Table 1: Ser. marcescens, 10104; assay type: cell-based; settings: Serratia marcescens, Mueller-Hinton Broth, 10^6/ml, 37° C., 18 hours
Experimental: as §1, §2, §3

Pseudomonas aeruginosa = assay: Antibacterial activity against Pseudomonas aeruginosa (summary of Table 1); assay type: cell-based; settings: in words
Experimental: as §1, §2, §3

[2] = Acute toxicity (LD50) in mice (i.v.); settings: mouse, in vivo, iv

| Compound | MIC (Sh. flexneri, 2a, 5503) [µg/mL] | MIC (Pr. vulgaris, 08602) [µg/mL] | MIC (Str. pyogenes, G-36) [µg/mL] | MIC (E. coli, NIHJ) [µg/mL] | MIC (Ps. aeruginosa, 32121) [µg/mL] | MIC [1] [µg/mL] | MIC (Pr. mirabilis, IFO-3849) [µg/mL] | MIC (Ps. aeruginosa, 32234) [µg/mL] | MIC (S. epidermidis, 56500) [µg/mL] | MIC (K. pneumoniae, type 1) [µg/mL] | MIC (S. aureus, 209 P) [µg/mL] | MIC (Ps. aeruginosa, 32122) [µg/mL] | MIC (Ps. aeruginosa, 32104) [µg/mL] | MIC (B. subtilis, ATCC-6633) [µg/mL] | MIC (Ps. aeruginosa, 32233) [µg/mL] | MIC (Ser. marcescens, 10104) [µg/mL] | further results |
| --- | --- | --- | --- | --- | --- | --- | --- | --- | --- | --- | --- | --- | --- | --- | --- | --- | --- |
| C=C1CCc2c(N3CCC(O)C3)c(F)cc3c(=O)c(C(=O)O)cn1c23 (stereo not shown) [Ia, 9-fluoro-8-(3-hydroxy-1-pyrrolidinyl)-5-methylene-1-oxo-6,7-dihydro-1H,5H-benzo(ij)quinolizine-2-carboxylic acid] | 0.0125 (≈ 0.0363 µM) | 0.05 (≈ 0.145 µM) | 0.39 (≈ 1.13 µM) | 0.0125 (≈ 0.0363 µM) | 0.1 (≈ 0.29 µM) | 0.39 (≈ 1.13 µM) | 0.1 (≈ 0.29 µM) | 0.39 (≈ 1.13 µM) | 0.1 (≈ 0.29 µM) | 0.1 (≈ 0.29 µM) | 0.05 (≈ 0.145 µM) | 0.39 (≈ 1.13 µM) | 0.31 (≈ 0.9 µM) | ≤ 0.0063 | 0.78 (≈ 2.27 µM) | 0.1 (≈ 0.29 µM) | MIC (Ent. cloacae, 03400; Enterobacter cloacae, Ent. cloacae, 03400, Mueller-Hinton Broth, 10^6/ml, 37° C., 18 hours, read-out: MIC): 0.05 µg/mL (≈ 0.145 µM); antibacterial activity against Gram-positive bacteria (Gram-positive bacteria): very strong antibacterial activity |
| C=C1CCc2c(N3CCC(N)C3)c(F)cc3c(=O)c(C(=O)O)cn1c23 (stereo not shown) [Ib, 8-(3-amino-1-pyrrolidinyl)-9-fluoro-5-methylene-1-oxo-6,7-dihydro-1H,5H-benzo(ij)quinolizine-2-carboxylic acid] | 0.0125 (≈ 0.0364 µM) | 0.025 (≈ 0.0728 µM) | 0.39 (≈ 1.14 µM) | 0.0125 (≈ 0.0364 µM) | 0.025 (≈ 0.0728 µM) | 0.39 (≈ 1.14 µM) | 0.025 (≈ 0.0728 µM) | 0.05 (≈ 0.146 µM) | 0.19 (≈ 0.553 µM) | 0.05 (≈ 0.146 µM) | 0.1 (≈ 0.291 µM) | 0.1 (≈ 0.291 µM) | 0.05 (≈ 0.146 µM) | 0.025 (≈ 0.0728 µM) | 0.1 (≈ 0.291 µM) | 0.05 (≈ 0.146 µM) | MIC (Ent. cloacae, 03400; Enterobacter cloacae, 03400, 18 h): 0.0125 µg/mL (≈ 0.0364 µM); antibacterial activity against Pseudomonas aeruginosa (Pseudomonas aeruginosa): very strong antibacterial activity |
| C=C1CCc2c(N3CCC(N)C3)c(F)cc3c(=O)c(C(=O)O)cn1c23 (stereo not shown) [Ib, hydrochloric acid addition salt, 8-(3-amino--pyrrolidinyl)-9-fluoro-5-methylene-6,7-dihydro-1-oxo-1H,5H-benzo(ij)quinolizine-2-carboxylic acid] |  |  |  |  |  |  |  |  |  |  |  |  |  |  |  |  | LD50 [2]: 252 mg/kg |
